Assay results: patent US20040235830A1, “Substituted cyclohexane derivatives and the use thereof in medicaments for treating cardiovascular diseases” (priority 2000, published 2004)

System: Langendorff rat heart
Assay: Langendorff rat heart (isolated perfused heart, coronary perfusion pressure)
Details: constant-volume (10 ml/min) coronary perfusion, concentration from which perfusion pressure decreases (= relaxation of the coronary arteries), read-out: Decrease in the perfusion pressure from:
Protocol: The heart is rapidly removed after opening the chest cavity of anesthetized rats and is introduced into a conventional Langendorff apparatus. The coronary arteries are subjected to constant-volume (10 ml/min) perfusion, and the perfusion pressure arising thereby is recorded via an appropriate pressure transducer. A decrease in the perfusion pressure in this arrangement corresponds to a relaxation of the coronary arteries. At the same time, the pressure developed by the heart during each contraction is measured via a balloon introduced into the left ventricle, and a further pressure transducer. The rate at which the isolated heart beats is found by calculation from the number of contractions per unit time.

Question: How did the minimal effective concentration turn out when C[C@H](NC(=O)[C@H]1CCCCC1c1ccc(C(=O)N(C)C(C)(C)c2ccccc2)cc1)c1ccccc1 (stereo in doubt) [Example 177, N-Methyl-N-(1-methyl-1-phenylethyl)-4-[(1R,2S)-2-({[(1S)-1-phenylethyl]-amino}carbonyl)cyclohexyl]benzamide] was run?
Answer: Its minimal effective concentration is 0.01 µM.

Question: For O=C(N[C@@H](CO)c1ccccc1)[C@H]1CCCC[C@@H]1c1ccc(CN(C(=O)N2CCCCC2)c2ccccc2)cc1 [Example 1, N-[4-((1S,2S)-2-{[((1R)-2-Hydroxy-1-phenylethyl)amino]carbonyl}cyclohexyl)-benzyl]-N-phenyl-1-piperidinecarboxamide], which minimal effective concentration is on record?
Answer: Its minimal effective concentration is 1 µM.

Question: For C[C@H](NC(=O)[C@H]1CCCC[C@@H]1c1ccc(CN(C(=O)N2CCCC2)c2ccccc2)cc1)c1ccccc1 [Example 7], which minimal effective concentration is on record?
Answer: Its minimal effective concentration is 0.1 µM.

Question: Which minimal effective concentration does the source give for CN(Cc1ccc([C@H]2CCCC[C@@H]2C(=O)N[C@@H](CO)c2ccccc2)cc1)c1ccccc1 [Example 21] here?
Answer: Its minimal effective concentration is 0.001 µM.

Question: For O=C(NC(CO)c1ccccc1)C1CCCCC1c1ccc(CN(C(=O)Oc2ccccc2)C2CC2)cc1 (stereo not drawn) [Example 40], which minimal effective concentration is on record?
Answer: Its minimal effective concentration is 0.01 µM.

Question: COCCN(Cc1ccc(C2CCCCC2C(=O)NC(CO)c2ccccc2)cc1)C(=O)Nc1ccccc1 (stereo not drawn) [Example 80] was tested. Which minimal effective concentration did it give?
Answer: Its minimal effective concentration is 1 µM.

Question: How did the minimal effective concentration turn out when C[C@H](NC(=O)[C@H]1CCCC[C@@H]1c1ccc(CN(C)C(C)(C)c2ccccc2)cc1)c1ccccc1 [Example 123, (1S,2S)-2-(4-{[Dimethylbenzyl(methyl)amino]methyl}phenyl)-N-[(1S)-1-phenylethyl]cyclohexanecarboxamide] was run?
Answer: Its minimal effective concentration is 0.01 µM.

Question: With COCC(NC(=O)[C@H]1CCCC[C@@H]1c1ccc(CN(C(=O)Oc2ccccc2)C2CC2)cc1)c1ccccc1 (stereo partly drawn) [Example 168] as the compound, how does the minimal effective concentration read?
Answer: Its minimal effective concentration is 0.01 µM.

Question: Which minimal effective concentration does the source give for C[C@H](NC(=O)[C@H]1CCCC[C@@H]1c1ccc(COc2ccccc2)cc1)c1ccccc1 [Example 210, (1S,2S)-2-(4-[Phenoxymethyl]phenyl)-N-[(1S)-1-phenylethyl]cyclohexane-carboxamide] here?
Answer: The minimal effective concentration was 0.001 µM.
